pIC50: −log10 of the molar value.
Legend:
[1] = biological target: T1, Hepatocyte growth factor receptor (Homo sapiens, UniProt P08581)
[2] = biological target: T2, Proto-oncogene tyrosine-protein kinase ROS (Homo sapiens, UniProt P08922)
[3] = biological target: T2, Proto-oncogene tyrosine-protein kinase ROS; remark: listed apart in the source
[4] = biological target: T2, Proto-oncogene tyrosine-protein kinase ROS; remark: listed apart in the source
[5] = biological target: T2, Proto-oncogene tyrosine-protein kinase ROS; assay: Inhibition of ROS1 (unknown origin) by HotSpot assay
[6] = biological target: T1, Hepatocyte growth factor receptor; remark: listed apart in the source
[7] = biological target: ALK tyrosine kinase receptor (Homo sapiens, UniProt Q9UM73)

T2 sequence (P08922 whole entry): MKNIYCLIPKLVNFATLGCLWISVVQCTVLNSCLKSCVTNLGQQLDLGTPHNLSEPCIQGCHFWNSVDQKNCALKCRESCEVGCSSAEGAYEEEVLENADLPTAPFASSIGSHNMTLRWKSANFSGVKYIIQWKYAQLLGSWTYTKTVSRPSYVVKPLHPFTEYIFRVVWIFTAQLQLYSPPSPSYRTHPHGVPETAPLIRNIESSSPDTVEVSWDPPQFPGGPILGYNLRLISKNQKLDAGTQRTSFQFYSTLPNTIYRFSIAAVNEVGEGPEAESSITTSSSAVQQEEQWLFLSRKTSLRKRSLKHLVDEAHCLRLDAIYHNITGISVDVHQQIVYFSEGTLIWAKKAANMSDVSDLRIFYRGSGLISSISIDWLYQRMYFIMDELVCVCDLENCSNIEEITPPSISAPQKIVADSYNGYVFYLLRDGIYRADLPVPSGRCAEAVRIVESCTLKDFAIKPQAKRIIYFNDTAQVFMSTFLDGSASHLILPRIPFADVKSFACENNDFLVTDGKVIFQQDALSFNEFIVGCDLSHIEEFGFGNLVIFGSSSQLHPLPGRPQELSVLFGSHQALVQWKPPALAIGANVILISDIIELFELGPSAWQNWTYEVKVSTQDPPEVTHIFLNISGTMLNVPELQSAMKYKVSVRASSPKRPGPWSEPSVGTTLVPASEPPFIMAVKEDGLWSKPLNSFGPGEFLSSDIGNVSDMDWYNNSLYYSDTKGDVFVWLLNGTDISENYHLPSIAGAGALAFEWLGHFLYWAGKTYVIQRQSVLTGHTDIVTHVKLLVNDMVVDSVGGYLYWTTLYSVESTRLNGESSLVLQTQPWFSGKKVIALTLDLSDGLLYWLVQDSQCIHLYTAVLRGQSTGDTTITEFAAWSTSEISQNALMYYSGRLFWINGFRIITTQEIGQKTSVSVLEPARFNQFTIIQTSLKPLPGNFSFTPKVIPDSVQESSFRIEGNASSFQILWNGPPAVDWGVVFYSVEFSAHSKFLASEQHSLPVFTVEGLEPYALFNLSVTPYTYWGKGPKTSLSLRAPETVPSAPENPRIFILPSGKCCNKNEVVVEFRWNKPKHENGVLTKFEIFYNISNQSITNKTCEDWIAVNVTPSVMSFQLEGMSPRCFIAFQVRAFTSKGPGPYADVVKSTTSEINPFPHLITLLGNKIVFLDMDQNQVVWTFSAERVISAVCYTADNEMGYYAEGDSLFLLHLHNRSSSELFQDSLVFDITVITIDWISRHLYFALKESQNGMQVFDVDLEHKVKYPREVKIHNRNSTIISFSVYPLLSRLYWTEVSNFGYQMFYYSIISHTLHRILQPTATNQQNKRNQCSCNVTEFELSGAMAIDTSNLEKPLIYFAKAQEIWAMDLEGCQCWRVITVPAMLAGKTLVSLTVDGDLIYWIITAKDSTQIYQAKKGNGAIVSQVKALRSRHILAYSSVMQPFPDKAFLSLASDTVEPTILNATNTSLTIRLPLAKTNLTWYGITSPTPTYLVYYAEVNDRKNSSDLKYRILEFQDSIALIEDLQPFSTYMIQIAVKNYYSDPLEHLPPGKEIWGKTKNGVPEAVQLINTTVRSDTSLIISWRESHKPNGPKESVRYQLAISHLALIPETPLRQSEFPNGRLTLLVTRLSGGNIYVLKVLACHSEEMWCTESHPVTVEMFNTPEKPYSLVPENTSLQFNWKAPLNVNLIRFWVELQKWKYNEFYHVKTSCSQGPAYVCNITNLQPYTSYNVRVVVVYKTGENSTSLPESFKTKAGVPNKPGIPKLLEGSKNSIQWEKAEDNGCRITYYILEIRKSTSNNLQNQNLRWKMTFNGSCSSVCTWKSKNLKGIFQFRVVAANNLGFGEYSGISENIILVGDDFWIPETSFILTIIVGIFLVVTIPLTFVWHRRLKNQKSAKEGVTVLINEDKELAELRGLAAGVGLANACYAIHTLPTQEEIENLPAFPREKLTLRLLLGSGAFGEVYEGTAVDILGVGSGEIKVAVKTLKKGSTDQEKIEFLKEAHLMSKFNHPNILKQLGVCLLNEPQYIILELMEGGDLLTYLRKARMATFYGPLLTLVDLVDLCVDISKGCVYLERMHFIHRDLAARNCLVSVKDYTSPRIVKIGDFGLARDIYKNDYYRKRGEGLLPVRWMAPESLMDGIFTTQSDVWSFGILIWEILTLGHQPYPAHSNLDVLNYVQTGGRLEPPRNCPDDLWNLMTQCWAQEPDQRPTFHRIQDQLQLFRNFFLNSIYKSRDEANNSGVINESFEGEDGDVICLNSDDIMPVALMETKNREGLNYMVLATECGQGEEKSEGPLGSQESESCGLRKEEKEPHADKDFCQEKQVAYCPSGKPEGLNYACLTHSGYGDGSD
T1 sequence (P08581 whole entry): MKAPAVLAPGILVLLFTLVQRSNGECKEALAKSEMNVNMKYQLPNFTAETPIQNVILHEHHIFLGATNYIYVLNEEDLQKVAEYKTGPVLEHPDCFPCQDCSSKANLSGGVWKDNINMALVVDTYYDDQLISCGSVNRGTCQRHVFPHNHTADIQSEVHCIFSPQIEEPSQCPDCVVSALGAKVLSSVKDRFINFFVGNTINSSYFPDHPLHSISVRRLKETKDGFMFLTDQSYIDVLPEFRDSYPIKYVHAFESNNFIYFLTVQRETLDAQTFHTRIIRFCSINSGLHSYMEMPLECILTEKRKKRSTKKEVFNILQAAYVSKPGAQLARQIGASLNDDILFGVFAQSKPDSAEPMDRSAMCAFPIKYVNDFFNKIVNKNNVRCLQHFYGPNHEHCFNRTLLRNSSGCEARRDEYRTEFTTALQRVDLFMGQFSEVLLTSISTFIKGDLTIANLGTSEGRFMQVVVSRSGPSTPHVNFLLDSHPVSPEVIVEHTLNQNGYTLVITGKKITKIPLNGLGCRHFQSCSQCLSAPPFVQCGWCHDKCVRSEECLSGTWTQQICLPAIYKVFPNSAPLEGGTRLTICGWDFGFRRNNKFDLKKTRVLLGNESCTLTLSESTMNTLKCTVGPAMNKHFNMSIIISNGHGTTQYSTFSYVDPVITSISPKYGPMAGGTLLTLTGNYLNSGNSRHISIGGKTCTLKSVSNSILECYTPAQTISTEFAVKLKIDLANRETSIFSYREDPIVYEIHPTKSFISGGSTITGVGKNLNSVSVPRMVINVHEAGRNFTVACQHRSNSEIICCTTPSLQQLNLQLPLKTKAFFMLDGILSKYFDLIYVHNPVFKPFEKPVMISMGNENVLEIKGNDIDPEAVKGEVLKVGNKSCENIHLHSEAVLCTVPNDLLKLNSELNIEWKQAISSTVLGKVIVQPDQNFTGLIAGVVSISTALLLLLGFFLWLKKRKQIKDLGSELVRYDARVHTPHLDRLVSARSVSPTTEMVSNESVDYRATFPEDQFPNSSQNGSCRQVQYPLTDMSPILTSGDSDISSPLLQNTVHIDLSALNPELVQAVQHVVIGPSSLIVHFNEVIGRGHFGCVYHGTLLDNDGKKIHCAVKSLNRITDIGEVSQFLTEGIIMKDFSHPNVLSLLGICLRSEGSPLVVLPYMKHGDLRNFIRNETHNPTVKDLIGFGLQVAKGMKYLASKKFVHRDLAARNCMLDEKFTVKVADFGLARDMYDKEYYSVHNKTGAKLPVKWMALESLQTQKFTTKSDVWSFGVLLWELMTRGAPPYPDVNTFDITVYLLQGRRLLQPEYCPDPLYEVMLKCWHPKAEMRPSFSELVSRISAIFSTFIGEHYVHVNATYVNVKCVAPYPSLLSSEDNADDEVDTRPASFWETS

Row | IC50 [1] | pIC50 [2] | SMILES | other results
1 | Not Active | 6.04 | COc1cc(C)cc(-c2nn(CC#N)cc2-c2cc(NCC(C)C)nc(-c3cccnc3)n2)c1 | 
2 | Not Active | 6.92 | COc1cc(C)cc(-c2nn(CC#N)cc2-c2cc(NCCCO)nc(-c3cccnc3)n2)c1 | 
3 | Not Active | 7.25 | COc1cc(C)cc(-c2nn(CC#N)cc2-c2cc(NCCCCO)nc(-c3cccnc3)n2)c1 | 
4 | Not Active | 6.83 | COc1cc(C)cc(-c2nn(CC#N)cc2-c2cc(NCCN3CCOCC3)nc(-c3cccnc3)n2)c1 | 
5 | Not Active | 7.06 | COc1cc(C)cc(-c2nn(CC#N)cc2-c2cc(NCCCN3CCOCC3)nc(-c3cccnc3)n2)c1 | 
6 | Not Active | 6.11 | Cc1cc(O)cc(-c2nn(CC#N)cc2-c2cc(NCC(C)C)nc(-c3cccnc3)n2)c1 | 
7 | Not Active | 6.97 | Cc1cc(O)cc(-c2nn(CC#N)cc2-c2cc(NCCCO)nc(-c3cccnc3)n2)c1 | 
8 | Not Active | 7.62 | Cc1cc(O)cc(-c2nn(CC#N)cc2-c2cc(NCCCCO)nc(-c3cccnc3)n2)c1 | 
9 | Not Active | 6.32 | Cc1cc(O)cc(-c2nn(CC#N)cc2-c2cc(NCCN3CCOCC3)nc(-c3cccnc3)n2)c1 | 
10 | Not Active | 6.74 | Cc1cc(O)cc(-c2nn(CC#N)cc2-c2cc(NCCCN3CCOCC3)nc(-c3cccnc3)n2)c1 | 
11 |  | 5.88 | COCCCNc1cc(-c2cnc(C)nc2-c2ccc(F)cc2Cl)nc(-c2cccnc2)n1 | 
12 |  | 6.45 | COCCCNc1cc(-c2cnc(C)nc2-c2ccc(Cl)cc2Cl)nc(-c2cccnc2)n1 | 
13 |  |  | COCCCNc1cc(-c2cnc(C)nc2-c2ccc(F)cc2Cl)nc(-c2ccccc2)n1 | IC50 [3]: Not Active
14 |  |  | COCCCNc1cc(-c2cnc(C)nc2-c2ccc(Cl)cc2Cl)nc(-c2ccccc2)n1 | IC50 [3]: Not Active
15 |  | 6.24 | Cc1ncc(-c2ccnc(-c3cccnc3)c2)c(-c2ccc(F)cc2Cl)n1 | 
16 |  | 6.48 | Cc1ncc(-c2ccnc(-c3cccnc3)c2)c(-c2ccc(Cl)cc2Cl)n1 | 
17 |  |  | COc1cc(N2CCC(N(C)C)CC2)ccc1Nc1ncc(Cl)c(Nc2ccccc2P(C)(C)=O)n1 | pIC50 [4]: 8.72
18 |  |  | COc1ccc(-c2cc(-c3c[nH]nc3-c3cc(C)cc(OC)c3)ccn2)cc1 | pIC50 [5]: 5.90
19 |  |  | COc1cc(C)cc(-c2c(-c3ccnc(-c4ccc(NC(C)=O)cc4)c3)cnn2CC#N)c1 | pIC50 [5]: 5.20
20 |  | 8.77 | Cc1cc(O)cc(-c2nn(CC#N)cc2-c2cc(NC[C@H](C)O)nc(-c3cccnc3)n2)c1 | pIC50 [6]: 7.96; pIC50 [7]: 9.22
